In PubChem BioAssay AID1919002 (Molecular Pharmacology Branch, DTP, NCI, 2023):
Blank lines part the entries; values can stand above or below the compound they belong to.

Tested on: 743489-274-T-PDC complex spheroid growth
Assay: Anticancer human tumor 743489-274-T-PDC patient-derived renal cell carcinoma cell line growth inhibition [AhR]
Details: for IC50: curve of first compound; for viability, T/C: stronger effect = lower value
How it was run: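 Complex tumor spheroids co-cultured with HUVEC and human MSC stroma; AhR antagonists tested in combination with standard-of-care and investigational agents. Top concentration at or near clinical Cmax (else 10 microM), half-log dilutions; growth expressed as percent test/control.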

[1] = second compound 0.1 µM, first compound 0.0316 µM
[2] = second compound 0.1 µM, first compound 0.1 µM
[3] = second compound 0.1 µM, first compound 0.316 µM
[4] = second compound 0.1 µM, first compound 1 µM
[5] = second compound 0.1 µM, first compound 3.16 µM
[6] = second compound 0.1 µM, first compound 10 µM
[7] = second compound 0.316 µM, first compound 0.0316 µM
[8] = second compound 0.316 µM, first compound 0.1 µM
[9] = second compound 0.316 µM, first compound 0.316 µM
[10] = second compound 0.316 µM, first compound 1 µM
[11] = second compound 0.316 µM, first compound 3.16 µM
[12] = second compound 0.316 µM, first compound 10 µM
[13] = second compound 1 µM, first compound 0.0316 µM
[14] = second compound 1 µM, first compound 0.1 µM
[15] = second compound 1 µM, first compound 0.316 µM
[16] = second compound 1 µM, first compound 1 µM
[17] = second compound 1 µM, first compound 3.16 µM
[18] = second compound 1 µM, first compound 10 µM
[19] = second compound 3.16 µM, first compound 0.0316 µM
[20] = second compound 3.16 µM, first compound 0.1 µM
[21] = second compound 3.16 µM, first compound 0.316 µM
[22] = second compound 3.16 µM, first compound 1 µM
[23] = second compound 3.16 µM, first compound 3.16 µM
[24] = second compound 3.16 µM, first compound 10 µM
[25] = second compound 10 µM, first compound 0.0316 µM
[26] = second compound 10 µM, first compound 0.1 µM
[27] = second compound 10 µM, first compound 0.316 µM
[28] = second compound 10 µM, first compound 1 µM
[29] = second compound 10 µM, first compound 3.16 µM
[30] = second compound 10 µM, first compound 10 µM
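Further: spheroids exposed to agents for 7 days before readout.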
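Wherever viability, T/C is given: 100% = DMSO vehicle control wells.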

IC50 (second compound 0.1 µM): > 3 µM
IC50 (second compound 0.316 µM): > 3 µM
IC50 (second compound 1 µM): > 3 µM
IC50 (second compound 3.16 µM): > 3 µM
IC50 (second compound 10 µM): > 3 µM
SMILES: O=C(C=Cn1cnc(-c2cc(C(F)(F)F)cc(C(F)(F)F)c2)n1)NNc1cnccn1 + CC(CO)NC(=O)c1cc(-c2ccc(Cl)cc2)nn(-c2cnn(C)c2)c1=O
viability, T/C (second compound 0.1 µM, first compound 0.00949 µM): 108%
viability, T/C (second compound 0.1 µM, first compound 0.03 µM): 102%
viability, T/C (second compound 0.1 µM, first compound 0.0949 µM): 111%
viability, T/C (second compound 0.1 µM, first compound 0.3 µM): 122%
viability, T/C (second compound 0.1 µM, first compound 0.949 µM): 114%
viability, T/C (second compound 0.1 µM, first compound 3 µM): 98.3%
viability, T/C (second compound 0.316 µM, first compound 0.00949 µM): 86.7%
viability, T/C (second compound 0.316 µM, first compound 0.03 µM): 103%
viability, T/C (second compound 0.316 µM, first compound 0.0949 µM): 117%
viability, T/C (second compound 0.316 µM, first compound 0.3 µM): 115%
viability, T/C (second compound 0.316 µM, first compound 0.949 µM): 101%
viability, T/C (second compound 0.316 µM, first compound 3 µM): 90.3%
viability, T/C (second compound 1 µM, first compound 0.00949 µM): 94%
viability, T/C (second compound 1 µM, first compound 0.03 µM): 109%
viability, T/C (second compound 1 µM, first compound 0.0949 µM): 101%
viability, T/C (second compound 1 µM, first compound 0.3 µM): 123%
viability, T/C (second compound 1 µM, first compound 0.949 µM): 116%
viability, T/C (second compound 1 µM, first compound 3 µM): 94.1%
viability, T/C (second compound 3.16 µM, first compound 0.00949 µM): 96.7%
viability, T/C (second compound 3.16 µM, first compound 0.03 µM): 101%
viability, T/C (second compound 3.16 µM, first compound 0.0949 µM): 112%
viability, T/C (second compound 3.16 µM, first compound 0.3 µM): 129%
viability, T/C (second compound 3.16 µM, first compound 0.949 µM): 105%
viability, T/C (second compound 3.16 µM, first compound 3 µM): 86.1%
viability, T/C (second compound 10 µM, first compound 0.00949 µM): 96.3%
viability, T/C (second compound 10 µM, first compound 0.03 µM): 110%
viability, T/C (second compound 10 µM, first compound 0.0949 µM): 104%
viability, T/C (second compound 10 µM, first compound 0.3 µM): 116%
viability, T/C (second compound 10 µM, first compound 0.949 µM): 94.9%
viability, T/C (second compound 10 µM, first compound 3 µM): 91.3%

IC50 (second compound 0.1 µM): > 10 µM
IC50 (second compound 0.316 µM): > 10 µM
IC50 (second compound 1 µM): > 10 µM
IC50 (second compound 3.16 µM): > 10 µM
IC50 (second compound 10 µM): > 10 µM
SMILES: COc1cc(C2c3cc4c(cc3C(OC3OC5COC(C)OC5C(O)C3O)C3COC(=O)C23)OCO4)cc(OC)c1O (stereo not given) + CC(CO)NC(=O)c1cc(-c2ccc(Cl)cc2)nn(-c2cnn(C)c2)c1=O
viability, T/C [1]: 107%
viability, T/C [2]: 114%
viability, T/C [3]: 95.1%
viability, T/C [4]: 95.9%
viability, T/C [5]: 99.6%
viability, T/C [6]: 97%
viability, T/C [7]: 99.3%
viability, T/C [8]: 118%
viability, T/C [9]: 108%
viability, T/C [10]: 93.5%
viability, T/C [11]: 92%
viability, T/C [12]: 90.7%
viability, T/C [13]: 98.6%
viability, T/C [14]: 96.4%
viability, T/C [15]: 101%
viability, T/C [16]: 103%
viability, T/C [17]: 86.6%
viability, T/C [18]: 94.9%
viability, T/C [19]: 99.9%
viability, T/C [20]: 97%
viability, T/C [21]: 102%
viability, T/C [22]: 95.4%
viability, T/C [23]: 97.7%
viability, T/C [24]: 90.9%
viability, T/C [25]: 108%
viability, T/C [26]: 109%
viability, T/C [27]: 103%
viability, T/C [28]: 106%
viability, T/C [29]: 97%
viability, T/C [30]: 92.1%

IC50 (second compound 0.1 µM): > 10 µM
IC50 (second compound 0.316 µM): > 10 µM
IC50 (second compound 1 µM): > 10 µM
IC50 (second compound 3.16 µM): > 10 µM
IC50 (second compound 10 µM): > 10 µM
SMILES: O=C(c1cc(Cc2n[nH]c(=O)c3ccccc23)ccc1F)N1CCN(C(=O)C2CC2)CC1 + Cc1ccccc1N=Nc1ccc(NC(=O)c2ccnn2C)c(C)c1
viability, T/C [1]: 104%
viability, T/C [2]: 96.2%
viability, T/C [3]: 91.8%
viability, T/C [4]: 90%
viability, T/C [5]: 108%
viability, T/C [6]: 94.6%
viability, T/C [7]: 94.4%
viability, T/C [8]: 94.4%
viability, T/C [9]: 94.3%
viability, T/C [10]: 90.2%
viability, T/C [11]: 91.7%
viability, T/C [12]: 94.2%
viability, T/C [13]: 97%
viability, T/C [14]: 95.2%
viability, T/C [15]: 111%
viability, T/C [16]: 96.1%
viability, T/C [17]: 93.8%
viability, T/C [18]: 83.3%
viability, T/C [19]: 97%
viability, T/C [20]: 87.5%
viability, T/C [21]: 91.4%
viability, T/C [22]: 90.6%
viability, T/C [23]: 101%
viability, T/C [24]: 99.3%
viability, T/C [25]: 92.4%
viability, T/C [26]: 110%
viability, T/C [27]: 106%
viability, T/C [28]: 96.8%
viability, T/C [29]: 92.7%
viability, T/C [30]: 85.4%
